This note sets out measurements from BindingDB's records for doi:10.1016/j.bmcl.2013.07.018 (Chungnam National University, 2013).

The assay can be described thus: Inhibition of Fas-mediated cell death in oxygen and glucose deprived rat H9c2 cells treated 30 mins before oxygen and glucose deprivation measured after 6 hrs by DAPI staining.

The compound `COC(=O)c1ccsc1NC(=O)CCSc1ccc(Br)cc1` returned an EC50 of 589 nM. Take `COC(=O)c1cc(Br)cc(Br)c1NC(=O)C(Sc1ccc(Br)cc1)c1ccccc1` (stereo not drawn): the half-maximal effective concentration (EC50) stood at 1580 nM. The result for `COC(=O)c1oc2ccccc2c1NC(=O)CSc1ccc(Br)cc1` reads 661 nM.

With `COC(=O)c1nn(CCc2ccccc2)cc1NC(=O)COc1ccc(Br)cc1`, the EC50 was 355 nM. The result for `COC(=O)c1sc2ncccc2c1NC(=O)CCSc1ccccn1` reads 490 nM; that for `COC(=O)c1oc2cccc(Cl)c2c1NC(=O)CSc1ccccn1`, 646 nM.

Turning to `COC(=O)c1c(NC(=O)CSc2ccc([N+](=O)[O-])cc2)cnn1CCc1ccccc1`, the EC50 was found to be 457 nM. This EC50 and that of the compound before are within 1.5-fold of each other.

The compound `O=C(CSc1ccc(Br)cc1)Nc1ccccc1C(=O)O` displayed a half-maximal effective concentration (EC50) of 2240 nM. For the compound `COC(=O)c1sccc1NC(=O)CSc1ccc(OC)cc1`, the EC50 is 871 nM. Against the preceding compound, the EC50 is about 2.6-fold lower.

Compound `COC(=O)c1cc(OC)c(OC)cc1NC(=O)CCSc1ccccn1` gave an EC50 of 1320 nM. `COc1cc(C(=O)O)c(NC(=O)CCSc2ccccn2)c(OC)c1OC` registered a 50% effective concentration (EC50) of 2090 nM. This EC50 lies about 1.6-fold higher than the previous one. The figure for `O=C(CSc1ccc(Br)cc1)Nc1c(C(=O)O)oc2ccccc12` is 724 nM; for `COC(=O)c1sc2ccccc2c1NC(=O)CSc1ccccc1` it is 692 nM. The figure for `COC(=O)c1c(NC(=O)CSc2cccc(OC)c2)cnn1CCc1ccccc1` is 437 nM; for `COC(=O)c1oc2cccc(Cl)c2c1NC(=O)CSc1ccc(Br)cc1` it is 1150 nM; for `COC(=O)c1ccsc1NC(=O)CSc1ccccc1` it is 724 nM. Consider `COC(=O)c1nn(CCc2ccccc2)cc1NC(=O)CCc1ccccc1`, for which the EC50 was determined as 427 nM. The figure for `COC(=O)c1ccccc1NC(=O)CSc1ccccn1` [2-[[1-oxo-2-(2-pyridinylthio)ethyl]amino]benzoic acid methyl ester] is 692 nM; for `COC(=O)c1ccsc1NC(=O)CSc1ccc(Br)cc1` it is 759 nM; for `CN(C)C(=O)c1sccc1NC(=O)CSc1ccc(Br)cc1` it is 851 nM. The figure for `COC(=O)c1ccc(Cl)cc1NC(=O)CSc1ccc(Br)cc1` is 955 nM. The result for `COC(=O)c1oc2ccccc2c1NC(=O)CSc1ccc([N+](=O)[O-])cc1` reads 575 nM; that for `COc1cc(NC(=O)CSc2ccc(Br)cc2)c(C2=NCCO2)cc1OC`, 955 nM; that for `COC(=O)c1sc2ccccc2c1NC(=O)CCSc1ccc(Br)cc1`, 724 nM.

On to `COC(=O)c1c(NC(=O)CSc2ccccc2N)cnn1CCc1ccccc1`, for which the response was half-maximal at 513 nM (EC50). The EC50 values of the last two compounds are within 1.5-fold of each other. The figure for `COC(=O)c1oc2ccccc2c1NC(=O)COc1ccc(Br)cc1` is 1050 nM; for `O=C(CSc1ccc(Br)cc1)Nc1c(Br)cc(Br)cc1C(=O)O` it is 1230 nM.

As for `O=C(O)c1cc(Cl)ccc1NC(=O)C(Sc1ccc(Br)cc1)c1ccccc1` (stereo not drawn), a half-maximal effect (EC50) was put at 2000 nM. Compared with the last compound, the EC50 is about 1.6-fold higher. The figure for `Cc1csc(C(=O)O)c1NC(=O)CSc1ccc(Br)cc1` is 1120 nM; for `COC(=O)c1c(NC(=O)CSc2ccc(Br)cc2)cnn1CCc1ccccc1` it is 513 nM.

In turn, `O=C(CCSc1ccccn1)Nc1cc(Cl)ccc1C1=NCCO1` displayed an EC50 of 1740 nM. The result for `COC(=O)c1cc(Br)cc(Br)c1NC(=O)CCSc1ccccn1` reads 933 nM; that for `COC(=O)c1ccc(Cl)cc1NC(=O)CCSc1ccccn1`, 1020 nM. The result for `COC(=O)c1cc(OC)c(OC)c(OC)c1NC(=O)CCSc1ccccn1` reads 1070 nM; that for `COC(=O)c1sccc1NC(=O)CCSc1ccc(Br)cc1`, 1290 nM; that for `COC(=O)c1sccc1NC(=O)CCSc1ccccc1`, 501 nM.

`COC(=O)c1sccc1NC(=O)CSc1ccccc1` registered an EC50 of 794 nM. The compound `COC(=O)c1ccccc1NC(=O)CSc1ccccc1` showed an EC50 of 562 nM.

In turn, `COC(=O)c1sccc1NC(=O)CSc1cccc(OC)c1` displayed an EC50 of 575 nM. In turn, `COC(=O)c1oc2cccc(Cl)c2c1NC(=O)CCSc1ccccn1` yielded a concentration giving a half-maximal response (EC50) of 631 nM.

`COC(=O)c1sccc1NC(=O)CN(C)c1ccccc1` yielded a concentration giving a half-maximal response (EC50) of 661 nM. This EC50 and that of the compound before are within 1.5-fold of each other. The figure for `COC(=O)c1sccc1NC(=O)CSc1ccc(Br)cc1` is 427 nM. The compound `COC(=O)c1sccc1NC(=O)COc1ccc(Br)cc1` had an EC50 of 891 nM. This EC50 lies about 2.1-fold higher than the previous one.

As a reminder, the EC50 is the concentration at which the effect is half-maximal. A low value points to a more potent agent.
